Key:
aldose reductase = biological target: T1, aldose reductase (Bos taurus, UniProt P16116); experiment: inhibition of aldose reductase enzyme activity (procedure of S. Hayman et al., modified by K. Sestanj et al.); type: biochemical, calf; conditions: for inhibition at 100 µM: 10^-4 M; for inhibition at 100 µM / inhibition at 10 µM / inhibition at 1 µM / inhibition at 0.1 µM: calf lens enzyme, read-out: Percent inhibition of aldose reductase enzyme activity; for inhibition at 10 µM: 10^-5 M; for inhibition at 1 µM: 10^-6 M; for inhibition at 0.1 µM: 10^-7 M; for aldose reductase inhibitory activity (in words): qualitative statement
T1 construct: partially purified aldose reductose enzyme obtained from calf lens; from tissue; host or cells: calf lens
Method: (§1) The activity of the compounds of the present invention, as agents for the control of chronic diabetic complications, is determined by their ability to successfully pass one or more of the following standard biological and/or pharmacological tests, viz., (1) measuring their ability to inhibit the enzyme activity of isolated aldose reductase; (2) measuring their ability to reduce or inhibit sorbitol accumulation in the sciatic nerve of acutely sterptozotocinized (i.e., diabetic) rats; (3) measuring their ability to reverse already-elevated sorbitol levels in the sciatic nerve and lens of chronic streptozotocin-induced diabetic rats; (4) measuring their ability to prevent or inhibit galactitol formation in the lens of acutely galactosemic rats, and (5) measuring their ability to delay cataract formation and reduce the severity of lens opacities in chronic galactosemic rats.
Hayman et al., as described in the Journal of Biological Chemistry, Vol. 240, p. […] In every case, the substrate employed ws partially purified aldose reductose enzyme obtained from calf lens.

[1] = test system: sorbitol accumulation in the sciatic nerve of streptozotocinized (i.e., diabetic) rats; experiment: inhibition of sorbitol accumulation in the sciatic nerve of acutely streptozotocinized (diabetic) rats; type: in vivo, rat; conditions: measured at 27 h, vs untreated
Method: as §1
The following spiro-hydantoin compounds of Preparation C and Examples I-V, VII-IX, XI-XVII, XIX-XXV, XXVII and XXX-XXXIII, respectively, were tested for their ability to reduce or inhibit sorbitol accumulation in the sciatic nerve of streptozotocinized (i.e., diabetic) rats by the procedure essentially described in U.S. Pat. No. 3,821,383. In the present study, the amount of sorbitol accumulation in the sciatic nerves was measured 27 hours after induction of diabetes. The compounds were administered orally at the dose levels indicated at 4, 8 nd 24 hours following the administration of streptozotocin. The results obtained in this manner are presented below in terms of percent inhibition (%) afforded by the test compound as compared to the case where no compound was administered (i.e., the untreated animal where sorbitol levels normally rise from approximately […]. tissue to as high as […]. tissue in the 27-hour test period): […]

[2] = test system: sorbitol levels in the sciatic nerve and lens of diabetic subjects; experiment: lowering of sorbitol levels in sciatic nerve (peripheral nerves) and lens of diabetic subjects (summary statement); type: in vivo; conditions: qualitative statement
[3] = test system: galactitol levels in the lens of galactosemic subjects; experiment: lowering of galactitol levels in the lens of galactosemic subjects (summary statement); type: in vivo; conditions: qualitative statement
[4] = 1.5 mg./kg. orally at 4, 8 and 24 h after streptozotocin
[5] = 5.0 mg./kg. orally at 4, 8 and 24 h after streptozotocin
[6] = 10 mg./kg. orally at 4, 8 and 24 h after streptozotocin
[7] = 0.75 mg./kg. orally at 4, 8 and 24 h after streptozotocin

Compound | inhibition at 100 µM (aldose reductase) [%] | inhibition at 10 µM (aldose reductase) [%] | inhibition at 1 µM (aldose reductase) [%] | inhibition at 0.1 µM (aldose reductase) [%] | aldose reductase inhibitory activity (in words) (aldose reductase) | Percent inhibition of sorbitol accumulation in the sciatic nerve [1, 4] [%] | Percent inhibition of sorbitol accumulation in the sciatic nerve [1, 5] [%] | Percent inhibition of sorbitol accumulation in the sciatic nerve [1, 6] [%] | lowering of sorbitol levels in sciatic nerve (peripheral nerves) and lens (in words) [2] | lowering of galactitol levels in the lens (in words) [3] | Percent inhibition of sorbitol accumulation in the sciatic nerve [1, 7] [%]
O=C1NC(=O)C2(CCc3ccccc32)N1 (stereo not drawn) [Ex. I, spiro-[imidazolidine-4,1'-indan]-2,5-dione] | 73 | 39 | 18 | -11 | highly potent | 29 | 52 | 67 | extremely effective | extremely effective | –
O=C1NC(=O)C2(CCSc3cc(Cl)c(Cl)cc32)N1 (stereo not drawn) [Ex. XI, 6',7'-dichloro-spiro-[imidazolidine-4,4'-thiochroman]-2,5-dione] | 67 | 84 | 76 | 69 | highly potent | – | 59 | – | extremely effective | extremely effective | –
O=C1NC(=O)C2(CCOc3cc(Cl)c(Cl)cc32)N1 (stereo not drawn) [Ex. XXIII, 6,7-dichloro-spiro-[chroman-4,4'-imidazolidine]-2',5'-dione] | 59 | 96 | 91 | 84 | highly potent | 64 | – | – | extremely effective | extremely effective | –
O=C1NC(=O)C2(CCOc3c(Cl)cc(Cl)cc32)N1 (stereo not drawn) [Ex. XXIV, 6,8-dichloro-spiro-[chroman-4,4'-imidazolidine]-2',5'-dione] | 85 | 90 | 78 | 81 | highly potent | – | – | – | extremely effective | extremely effective | 82
O=C1NC(=O)C2(CCOc3ccc(Cl)cc32)N1 (stereo not drawn) [Ex. XXV, 6-chloro-spiro-[chroman-4,4'-imidazolidine]-2',5'-dione] | 73 | 81 | 77 | 64 | highly potent | 84 | – | – | extremely effective | extremely effective | 64
O=C1NC(=O)C2(CS(=O)(=O)c3ccccc32)N1 (stereo not drawn) [Ex. XXXIII, spiro-[imidazolidine-4,3'-thioindan]-2,5-dione-1,1'-dioxide] | 81 | 64 | 22 | 4 | – | – | 5 | – | – | – | –
O=C1NC(=O)C2(CCCc3ccccc32)N1 (stereo not drawn) [Prep. C, 3',4'-Dihydro-spiro-[imidazolidine-4,1'(2'H)-naphthalene]-2,5-dione, reference compound] | 72 | 34 | 13 | 7 | – | – | 3 | 40 | – | – | –

Reference: patent publication US4117230A, “Hydantoin derivatives as therapeutic agents” (priority 1977, dated 1978)
